Where “and” joins values, the source holds several entries; their conditions need not be identical. Equal values may be shown once.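 In this assay, cells in 96-well plates receive the compound at five concentrations for 48 hours. Endpoints are linearly interpolated between the surrounding concentrations. Abbreviation: GI50, concentration required for 50% inhibition of growth. TGI denotes the concentration required for complete inhibition of growth.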
Key:
Assay in all cases: growth of human tumour cells (NCI), 48 h
LOX IMVI melanoma = system: LOX IMVI melanoma
EKVX NSCLC = system: EKVX NSCLC
RXF 393 renal = system: RXF 393 renal
BT-549 breast = system: BT-549 breast
HS 578T breast = system: HS 578T breast
UACC-257 melanoma = system: UACC-257 melanoma
SK-MEL-2 melanoma = system: SK-MEL-2 melanoma
MDA-MB-231 breast = system: MDA-MB-231 breast
DU-145 prostate = system: DU-145 prostate
M14 melanoma = system: M14 melanoma

| Structure (SMILES) | TGI (LOX IMVI melanoma) | TGI (EKVX NSCLC) | TGI (RXF 393 renal) | TGI (BT-549 breast) | TGI (HS 578T breast) | TGI (UACC-257 melanoma) | TGI (SK-MEL-2 melanoma) | TGI (MDA-MB-231 breast) | TGI (DU-145 prostate) | TGI (M14 melanoma) | GI50 (LOX IMVI melanoma) | GI50 (EKVX NSCLC) | GI50 (RXF 393 renal) | GI50 (BT-549 breast) | GI50 (HS 578T breast) | GI50 (UACC-257 melanoma) | GI50 (SK-MEL-2 melanoma) | GI50 (MDA-MB-231 breast) | GI50 (DU-145 prostate) | GI50 (M14 melanoma) |
| --- | --- | --- | --- | --- | --- | --- | --- | --- | --- | --- | --- | --- | --- | --- | --- | --- | --- | --- | --- | --- |
| CC1=NN(c2ccccc2)C(=O)C1N=Nc1ccc([As](=O)(O)O)c(O)c1 (configuration not stated) | > 100 µM | > 100 µM | > 100 µM | > 100 µM | > 100 µM | > 100 µM | > 100 µM | > 100 µM | > 100 µM | > 100 µM |  |  |  |  |  |  |  |  |  |  |
| Cn1cc(-c2nc(-c3c[nH]c4ncccc34)cs2)c2cc(F)ccc21 | 7.06 µM | 10.5 µM | 9.14 µM | 13.6 µM | > 100 µM | 12.3 µM | 11.1 µM | 8.36 µM | 15.2 µM | 9.74 µM | 2.48 µM | 0.6 µM | 2.49 µM | 3.7 µM | 4.23 µM | 2.72 µM | 3.81 µM | 2.32 µM | 3.97 µM | 2.93 µM |
| CCOc1cccc(/C=N/NC(=O)c2ccc(Nc3ccnc(C(F)(F)F)c3)cc2)c1O | 24.5 µM | > 81.8 µM | > 49.2 µM | > 85 µM | > 100 µM | > 21.1 µM | > 45.4 µM | > 100 µM | > 100 µM | > 24.6 µM | 0.6 µM | 1.21 µM | 2.97 µM | 1.88 µM | 6.31 µM | 0.728 µM | 3.13 µM | 1.7 µM | 2.46 µM | 1.19 µM |
| C[C@@H]1CN(C(=O)c2ccc(NC(=O)c3cc(O[C@H](C)c4c(Cl)ccc(F)c4Cl)c(N)nn3)cc2)C[C@H](C)N1 | 3.04 µM | 21.3 µM | 5.29 µM | 16.5 µM | 21.9 µM | 3.2 µM | 19.6 µM | 8 µM | 19.2 µM | 3.19 µM | 1.46 µM | 5.66 µM | 1.93 µM | 5.14 µM | 3.02 µM | 1.39 µM | 5.57 µM | 2.1 µM | 6.7 µM | 1.55 µM |
| O=C1CC(c2ccc(N3CCOCC3)cc2)(c2ccsc2)NC(=O)C1Sc1ccccc1Cl (configuration not stated) | > 100 µM | > 100 µM | > 100 µM | > 100 µM | > 100 µM | > 100 µM | > 100 µM | > 100 µM | > 100 µM | > 100 µM | 31.5 µM | > 100 µM | 5.65 µM | 16.7 µM | 3.66 µM | > 100 µM | 49.3 µM | 45.9 µM | 85 µM | 60.7 µM |
| C[n+]1c(/C=C\c2ccc(Cl)cc2)ccc2ccccc21 | > 100 µM | > 100 µM | 98.3 µM | 76.4 µM | > 100 µM | 62.4 µM | 50.3 µM | > 100 µM | > 100 µM | 46.7 µM | 37.4 µM | 2.45 µM | 31.8 µM | 4.78 µM | 27.4 µM | 16.2 µM | 21 µM | 38.9 µM | 89.8 µM | 12.9 µM |
| Cn1cncc1[C@@](N)(c1ccc(Cl)cc1)c1ccc2c(c1)c(-c1cccc(Cl)c1)cc(=O)n2C | 5.36 µM | 13.1 µM | 11.5 µM | 14.4 µM | 15.5 µM | 12.4 µM | 4.99 µM | 14.9 µM | 3.66 µM | 11.1 µM | 1.34 µM | 2.22 µM | 2.41 µM | 3.16 µM | 2.77 µM | 1.37 µM | 1.39 µM | 2.52 µM | 1.81 µM | 0.0818 µM |
| COc1cc(-c2nc(Nc3nc4ccccc4[nH]3)nc(N)c2C#N)cc(OC)c1OC | 41.4 µM | > 100 µM | 23.7 µM | 37.1 µM | > 100 µM | > 100 µM | 34 µM | 92.4 µM | 35.6 µM | 36.5 µM | 6.37 µM | 41.4 µM | 0.378 µM | 0.857 µM | 0.33 µM | > 100 µM | 2.69 µM | 13.1 µM | 10.9 µM | 2.34 µM |
| COc1cccc(C2c3cc4c(cc3OC(C)(O)C2C)OCO4)c1O (configuration not stated) | 50.4 µM | > 100 µM | 34.1 µM | 52.8 µM | 9.94 µM | 47.1 µM | 65.3 µM | 19.2 µM | 53.9 µM | 24.2 µM |  |  |  |  |  |  |  |  |  |  |
| N#C/C(=C\c1ccc(-c2ccc(Cl)cc2)o1)C(=O)Nc1ncc(Cc2ccc(Cl)cc2)s1 | 7.55 µM | 5.16 µM | 6.85 µM | 10.4 µM | 7.8 µM | > 100 µM | 12.9 µM | 4.4 µM | 13.5 µM | 6.08 µM | 2.62 µM | 2 µM | 2.32 µM | 2.34 µM | 1.59 µM | 4.06 µM | 3.26 µM | 1.64 µM | 2.53 µM | 2.04 µM |
| C/C=C(\C)C(=O)N[C@H]1CC[C@]2(C)C3CC[C@@]4(C)C(CC[C@@H]4C(C)N(C)C)C3CCC2[C@H]1OC(C)=O (some centres not stated) | 2.78 µM | 8.62 µM | 3.03 µM | 5.48 µM | 4.7 µM | 4.16 µM | 4.48 µM | 4.02 µM | 10.9 µM | 3.69 µM | 1.42 µM | 2.06 µM | 1.57 µM | 2.07 µM | 1.75 µM | 2.12 µM | 2.29 µM | 1.91 µM | 2.85 µM | 1.85 µM |
| CCCN(CCC)C(=O)C1=Cc2ccc(-c3ccc(C(=O)N4CCCC4)cc3)cc2N=C(N)C1 | 24.2 µM | 57.1 µM | 19.3 µM | 33.3 µM | 59 µM | 22.3 µM | 26.2 µM | 77 µM | 91.1 µM | 22.7 µM | 9.48 µM | 11.8 µM | 5.13 µM | 12.8 µM | 16 µM | 9.03 µM | 10.6 µM | 13.2 µM | 20.6 µM | 5.66 µM |
| O=C(Nc1ccccc1O)c1cccc(NC2=C(Cl)C(=O)N(Cc3ccccc3)C2=O)c1 | 3.6 µM | 28.8 µM | 5.28 µM | 29.8 µM | 17.8 µM | 16.6 µM | 24.1 µM | 7.53 µM | 20.6 µM | 11.3 µM | 1.62 µM | 15.1 µM | 1.89 µM | 11.9 µM | 5.28 µM | 4.44 µM | 6.07 µM | 1.89 µM | 7.07 µM | 4.35 µM |
| CN(C)c1ccc(N2Cc3ccccc3OC3=C2C(=O)c2c(O)ccc(O)c2C3=O)cn1 | 0.48 µM | 1.21 µM | 0.318 µM | 0.507 µM | 26.1 µM | 1.14 µM | 1.49 µM | 0.745 µM | 0.51 µM | 0.713 µM | 0.16 µM | 0.242 µM | 0.152 µM | 0.195 µM | 0.444 µM | 0.311 µM | 0.541 µM | 0.234 µM | 0.223 µM | 0.241 µM |
| C=C1C(=O)O[C@@H]2C[C@@]3(C)CCC[C@H](C)C3=C[C@H]12 | 22.9 µM | 28.2 µM | 18.8 µM | 15.7 µM | 19.1 µM | 20.1 µM | 14.7 µM | 27.3 µM | 24.3 µM | 12.6 µM |  |  |  |  |  |  |  |  |  |  |
| CC(=O)N1c2ccccc2C23CCN(C)CC4C(C)OCC(C4CC2=O)C13 (configuration not stated) | > 100 µM | > 100 µM | > 100 µM | > 100 µM | > 100 µM | > 100 µM | > 100 µM | > 100 µM | > 100 µM | > 100 µM |  |  |  |  |  |  |  |  |  |  |
| C1=Cc2ccccc2Nc2ccccc21 | > 100 µM | > 100 µM | > 100 µM | > 100 µM | > 100 µM | > 100 µM | > 100 µM | > 100 µM | > 100 µM | > 100 µM | > 100 µM | 50 µM | > 100 µM | > 100 µM | > 100 µM | > 100 µM | > 100 µM | > 100 µM | > 100 µM | > 100 µM |
| COc1ccc(CCN2C(=O)C=CC2=O)cc1OC | 36.9 µM | 41.1 µM | 19.9 µM | 35.3 µM | 99.6 µM | 30.9 µM | 14.8 µM | 28.5 µM | 31 µM | 24.1 µM |  |  |  |  |  |  |  |  |  |  |
| COc1cc(NS(C)(=O)=O)ccc1Nc1c2ccc(Cl)cc2nc2c(OC)cccc12 |  | 26.7 µM | 3.04 µM | 2.24 µM | 73.7 µM | 4.07 µM | 7.35 µM | 15.6 µM | 0.505 µM | 1.83 µM | 0.109 µM | 6.2 µM | 0.411 µM | 0.441 µM | 4.47 µM | 0.698 µM | 1.47 µM | 3 µM | < 0.0143 µM | 0.146 µM |
| CCCCCCCCCCCCCC(=O)O[C@H]1CC[C@H](NC(=O)[C@H](OC)[C@H](O)[C@@H](O)[C@H](O)/C=C/C(C)C)C(=O)NC1 | 9.4 µM and 1.15 µM | 36.8 µM and 23.4 µM | 0.283 µM | 51.2 µM |  | 27.2 µM and 20.4 µM | 51.2 µM and 9.49 µM | 13.5 µM | 34.6 µM and > 100 µM | 0.345 µM and 0.556 µM and 0.129 µM |  |  |  | 12.8 µM | 0.0112 µM |  |  | 0.00638 µM | 0.00512 µM |  |

— PubChem BioAssay (NCI)
